According to US10471118B2, “Retinylamine derivitives for treatment of ocular disorders” (CASE WESTERN RESERVE UNIVERSITY, priority 2014, dated 2019):

What was measured:
[1] = test system: Caco-2 cells; test: Caco-2 cell monolayer transport; type: in vitro ADME, human; settings: 500 μM apical, PBS pH 6, within 24 h, compared with Ret-NH2
Method: 1. Coating and preparing culture inserts for seeding: Rat tail collagen was diluted 1:9 with 0.5% acetic acid. The resulting solution (200 ul) was added to each insert to coat the surface. The inserts were air-dried overnight, followed by a UV irradiation for 45 min to sterilize the inserts. 2. Seeding cells onto an insert: A concentration of 4×10^5 cells/well EMEM solution containing 20% FBS was added to the precoated insert. Another 2 ml of fresh EMEM media was added to the other side (bottom). The media was changed after 1 day of incubation and every other day after that. The cells were cultured for 21 days until they were mature. 3. Transport experiment: The media was aspirated out. The cell monolayers were washed with PBS three times. Cells were further incubated with PBS for 1 h under 37° C. to allow them to release all the materials that may be taken up during incubation. PBS solution was removed and the prodrug solution (500 μM in 2.0 ml PBS (pH=6) solution) was loaded to the apical side. The basolateral side was loaded with 2.5 ml fresh PBS solution. The plates were incubated under 37° C. Samples of 200 μl were withdrawn from the basolateral side at several time points within 24 h. The drug release amount was determined by UV spectrometer.

[2] = test system: ARPE19 cells; test: ARPE19 cell uptake; type: cell-based, human; settings: 10 μM, 16 h, compared with Ret-NH2
Method: The ARPE19 cells (human RPE cells purchased from American Type Culture Collection) were plated in 6-well plates using Dulbecco's Modified Eagle Medium (DMEM) and allowed to grow to 90% confluency. The cells were then incubated with DMEM containing 10 μM derivatives for 16 hours under dark room conditions. Control group was cell without drug. Medium was removed and cells were washed three times by PBS after 16 h of incubation. Cells were then collected. Samples were treated with 400 μl of methanol, homogenized at 37° C. for 1 h, followed by a centrifugation. The 100 μl of the supernatant was analyzed by reverse phase HPLC. Reverse-phase HPLC (analytical C18 reverse column; 5 μm; 250 mm×4.6 mm; flow rate of 1.0 mL/min; 60:40 acetonitrile:H2O (v:v) with 0.05% trifluoroacetic acid; detection at 325 nm) was utilized to determine retinylamine or its derivative in […].

[3] = target: T1, RPE65 (Mus musculus, UniProt Q91ZQ5); test: In vivo RPE65 inhibition: 11-cis-retinal regeneration after photo-bleach; settings: 1.75 μmol per mouse oral 16 h prior to photo-bleach (7000 lux, 10 min), 24 h dark
T1 sequence (Q91ZQ5 2-533 limits assumed): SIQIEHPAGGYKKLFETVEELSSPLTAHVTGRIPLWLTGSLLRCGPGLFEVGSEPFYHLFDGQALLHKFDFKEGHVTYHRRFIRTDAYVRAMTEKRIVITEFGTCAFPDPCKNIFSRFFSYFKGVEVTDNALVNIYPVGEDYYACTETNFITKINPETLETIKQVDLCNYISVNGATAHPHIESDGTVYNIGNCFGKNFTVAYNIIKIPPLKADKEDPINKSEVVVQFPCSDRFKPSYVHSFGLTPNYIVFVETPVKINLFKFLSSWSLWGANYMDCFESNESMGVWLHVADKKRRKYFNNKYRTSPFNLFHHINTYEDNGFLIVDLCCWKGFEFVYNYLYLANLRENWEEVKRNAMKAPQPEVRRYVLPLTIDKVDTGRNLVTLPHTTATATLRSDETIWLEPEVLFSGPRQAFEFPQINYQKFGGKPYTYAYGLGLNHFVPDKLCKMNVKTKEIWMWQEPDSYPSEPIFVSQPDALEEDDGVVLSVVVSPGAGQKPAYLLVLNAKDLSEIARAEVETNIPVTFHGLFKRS
Method: The retinylamine derivatives (31 RVG and 3b RF) or Ret-NH2 were administered by oral gavage at same mole dose 1.75 μmol per mouse into dark-adapted C57BLwild-type female mice (n=3) at 16 h prior to photo-bleach. After photo-bleach (7000 lux, 10 min), mice were kept the dark room for 24 h to allow the visual cycle to recovery. Mice were then sacrificed and eyes were extracted for analysis. Mice without treatment prior to photo-bleach were set as control. Retinoid extraction was done by manually homogenizing eyes in 1 mL of 1:1 ethanol:PBS solution containing 40 mM hydroxylamine. Retinoids were extracted in 4 mL hexane, concentrated, and reconstituted to a volume of 200 μL. Normal-phase HPLC (Agilent-Zorbax SIL; 5 μm; 4.5×250 mm; flow rate of 1.4 mL/min; 90:10 hexane:ethyl acetate (v:v); detection at 325 nm) was utilized to analyze retinoid concentrations. In vivo RPE65 inhibition was analyzed by quantifying the amount of 11-cis-retinal within each eye.

[4] = test system: C57BL/6J wild-type mice; test: ERG retinal function in C57BL/6J wild-type mice after oral gavage; type: in vivo; settings: 1.75 μmol per mouse oral; for ERG signal compared with nontreated control: 6 h post-treatment; for ERG signal compared with untreated control: 24 h post treatment
Method: All ERG procedures were performed by published methods. For single-flash recording, the duration of white-light flash stimuli (from 20 μs to 1 ms) was adjusted to provide a range of illumination intensities (from −3.7 to 1.6 log cd s m-2). Three to five recordings were made at sufficient intervals between flash stimuli (from 3 s to 1 min) to allow recovery from any photobleaching effects.
Strong inhibition of retinoid cycle could cause temporary vision impairment. Electroretinograms (ERGs) were recorded to in retinal function in C57BL/6J wild-type mice at 6 and 24 h after oral gavage of RVG, RF or Ret-NH2 at a dose of 1.75 μmol per mouse.

[5] = Storage stability of RVG and Ret-NH2; type: physicochemical
Excerpt: The synthesis was straightforward, and Ret-NH2 reacted with fluorenylmethyloxycarbonyl (Fmoc) protected amino acids or peptides in the presence of coupling agents. The Fmoc group then was removed using 20% piperidine in […] solution to give target molecules. The retinylamine derivatives were characterized by ^1H-NMR, ^13C-NMR and mass spectroscopy. The retinylamine derivatives had the purity over 95% as determined by HPLC except 3m Ret-Gly-Gly (RGG) with the purity of 90% (see SI). We tested the stability of RVG. Less than 5% degradation was observed when RVG was stored in the desiccator under vacuum at r.t. for 2 months, while 95% of Ret-NH2 decomposed under the same condition within 1 week.

ERG signal compared with nontreated control [4] | degradation on storage ([5]; stored in the desiccator under vacuum at r.t. for 2 months) | ERG signal in the retina ([4]; first 24 h after the treatment) | decomposed on storage ([5]; desiccator under vacuum at r.t., within 1 week) | Structure (SMILES) | transport through the Caco-2 monolayer [1] | uptake in ARPE19 cells [2] | regeneration of 11-cis-retinal in the eye [3] | ERG signal compared with untreated control [4]
attenuated ERG signal | Less than 5% |  |  | CC1=C(/C=C/C(C)=C/C=C/C(C)=C/CNC(=O)[C@@H](NC(=O)CN)C(C)C)C(C)(C)CCC1 [RVG, (S)-2-(2-aminoacetamido)-N-((2E,4E,6E,8E)-3,7-dimethyl-9-(2,6,6-trimethylcyclohex-1-en-1-yl)nona-2,4,6,8-tetraen-1-yl)-3-methylbutanamide] | significantly higher transport through the Caco-2 monolayer | higher uptake in ARPE19 cells than Ret-NH2 | faster regeneration of 11-cis-retinal in the eye, and weaker inhibition of retinoid cycle than Ret-NH2 | recover to the magnitude of the untreated control mice
 |  | no significant ERG signal was detected | 95% | CC1=C(/C=C/C(C)=C/C=C/C(C)=C/CN)C(C)(C)CCC1 [Ret-NH2, (2E,4E,6E,8E)-3,7-dimethyl-9-(2,6,6-trimethylcyclohex-1-en-1-yl)nona-2,4,6,8-tetraen-1-amine] |  |  | much lower concentration of 11-cis-retinal than the untreated controls | 
attenuated ERG signal |  |  |  | CC1=C(/C=C/C(C)=C/C=C/C(C)=C/CNC(=O)[C@@H](N)Cc2ccccc2)C(C)(C)CCC1 [RF, (S)-2-amino-N-((2E,4E,6E,8E)-3,7-dimethyl-9-(2,6,6-trimethylcyclohex-1-en-1-yl)nona-2,4,6,8-tetraen-1-yl)-3-phenylpropanamide] | significantly higher transport through the Caco-2 monolayer | higher uptake in ARPE19 cells than Ret-NH2 | faster regeneration of 11-cis-retinal in the eye, and weaker inhibition of retinoid cycle than Ret-NH2 | recover to the magnitude of the untreated control mice
